Converted amounts (≈) assume the structure as drawn. Each block holds one compound with its values, some of them ahead of it.
Columns and labels:
Assay in all cases: ≥ marks a high value that may be exact or a test limit, other limits are often not marked, values filed in µg/mL are converted to µM
[1] = system: Candida albicans ATCC 90028
[2] = system: Escherichia coli ATCC 25922
[3] = system: Staphylococcus aureus ATCC 25923
[4] = system: Bacillus subtilis ATCC 6633
Bacillus subtilis = system: Bacillus subtilis
Escherichia coli = system: Escherichia coli
Candida albicans = system: Candida albicans
Staphylococcus aureus = system: Staphylococcus aureus
[5] = system: Pseudomonas aeruginosa ATCC 27853
[6] = system: Staphylococcus aureus ATCC 29213
Escherichia coli UB1005 = system: Escherichia coli UB1005
[7] = system: Pseudomonas aeruginosa PAO1

- MIC [1]: 3 µM (≈ 7.78 µg/mL)
- MIC [2]: > 100 µM
- MIC [3]: 3 µM (≈ 7.78 µg/mL)
SMILES: CC[C@H](C)[C@H](NC(=O)[C@H](CC(C)C)NC(=O)[C@@H]1CCCN1C(=O)[C@H](CC(C)C)NC(=O)[C@@H](N)Cc1ccccc1)C(=O)N[C@@H](C)C(=O)NCC(=O)N[C@H](C(=O)N[C@@H](C)C(=O)N[C@@H](C)C(=O)N[C@@H](CO)C(=O)N[C@H](C(=O)N[C@@H](CC(C)C)C(=O)N1CCC[C@H]1C(=O)N[C@@H](CCCCN)C(=O)N[C@H](C(=O)N[C@@H](Cc1ccccc1)C(=O)N[C@H]1CSSC[C@@H](C(=O)O)NC(=O)[C@H](CCCCN)NC(=O)[C@H](CCCCN)NC(=O)[C@H]([C@@H](C)O)NC(=O)[C@H]([C@@H](C)CC)NC(=O)[C@H](Cc2ccccc2)NC1=O)[C@@H](C)CC)[C@@H](C)CC)C(C)C [FLPLIAGVAASILPKIFCFITKKC]

- MIC [4]: ≥ 100 µM
SMILES: CSCC[C@H](NC(=O)[C@H](Cc1ccccc1)NC(=O)CN)C(=O)N[C@@H](CO)C(=O)N[C@H](C(=O)N[C@@H](C)C(=O)N[C@@H](CO)C(=O)N[C@@H](CC(N)=O)C(=O)N[C@H](C(=O)N[C@@H](CC(C)C)C(=O)N[C@H](C(=O)N[C@@H](CC(N)=O)C(=O)N[C@H](C(=O)N[C@@H](C)C(=O)NCC(=O)N[C@H](C(=O)N[C@H](C(=O)N[C@@H](CCSC)C(=O)N[C@@H](CC(=O)O)C(=O)N[C@@H](CCCCN)C(=O)N[C@@H](CC(C)C)C(=O)N[C@@H](CCCCN)C(=O)N[C@H]1CSSC[C@@H](C(=O)O)NC(=O)[C@H](C)NC(=O)CNC(=O)[C@H]([C@@H](C)O)NC(=O)[C@H](Cc2ccccc2)NC(=O)[C@H](CCCCN)NC1=O)C(C)C)[C@@H](C)O)C(C)C)[C@@H](C)O)C(C)C)[C@@H](C)O [GFMSTASNVLTNVAGTVMDKLKCKFTGAC]

- MIC [1]: ≥ 150 µM
- MIC [2]: 3 µM (≈ 8.88 µg/mL)
SMILES: CC[C@H](C)[C@H](NC(=O)[C@H](CCCCN)NC(=O)[C@H](CC(=O)O)NC(=O)[C@H](CC(C)C)NC(=O)[C@H](CC(C)C)NC(=O)CNC(=O)[C@@H](NC(=O)[C@H](C)NC(=O)[C@H](CC(C)C)NC(=O)[C@H](CC(N)=O)NC(=O)[C@H](CCCCN)NC(=O)[C@H](C)NC(=O)[C@@H](NC(=O)[C@H](CC(N)=O)NC(=O)[C@H](CCCCN)NC(=O)[C@@H](NC(=O)[C@@H](NC(=O)[C@H](CC(=O)O)NC(=O)[C@H](CC(C)C)NC(=O)[C@H](CC(C)C)NC(=O)CN)[C@@H](C)O)[C@@H](C)CC)[C@@H](C)O)C(C)C)C(=O)N[C@@H](CCCCN)C(=O)N[C@H]1CSSC[C@@H](C(=O)O)NC(=O)CNC(=O)[C@H]([C@@H](C)O)NC(=O)[C@H](CCSC)NC(=O)[C@H](CCCCN)NC1=O [GLLDTIKNTAKNLAVGLLDKIKCKMTGC]

- MIC [1]: ≥ 160 µM
- MIC [2]: 80 µM (≈ 252 µg/mL)
- MIC [3]: > 160 µM
SMILES: CC[C@H](C)[C@H](NC(=O)[C@@H](NC(=O)[C@H](CC(N)=O)NC(=O)[C@H](CC(C)C)NC(=O)[C@H](CC(C)C)NC(=O)CN)C(C)C)C(=O)N[C@@H](CCCCN)C(=O)N[C@@H](CC(=O)O)C(=O)N[C@H](C(=O)N[C@@H](C)C(=O)N[C@@H](CCC(N)=O)C(=O)N[C@@H](CC(N)=O)C(=O)N[C@@H](CC(C)C)C(=O)N[C@@H](Cc1ccccc1)C(=O)N[C@@H](C)C(=O)N[C@@H](C)C(=O)N[C@@H](C)C(=O)N[C@@H](CC(C)C)C(=O)N[C@@H](CCC(=O)O)C(=O)N[C@@H](CCCCN)C(=O)N[C@@H](CC(C)C)C(=O)N[C@@H](CCCCN)C(=O)N[C@H]1CSSC[C@@H](C(=O)N[C@@H](CC(N)=O)C(=O)O)NC(=O)[C@H](CCCCN)NC(=O)[C@H]([C@@H](C)O)NC(=O)[C@H](C(C)C)NC(=O)[C@H](CCCCN)NC1=O)[C@@H](C)O [GLLNVIKDTAQNLFAAALEKLKCKVTKCN]

- MIC (Bacillus subtilis): 17.5 µM (≈ 30.8 µg/mL)
- MIC (Escherichia coli): 47.5 µM (≈ 83.6 µg/mL)
SMILES: CC[C@H](C)[C@H](N)C(=O)N[C@@H](CC(=O)O)C(=O)N[C@@H](Cc1c[nH]c2ccccc12)C(=O)N[C@@H](CCCCN)C(=O)N[C@@H](CCCCN)C(=O)N[C@H](C(=O)N[C@@H](Cc1ccccc1)C(=O)N[C@@H](CCC(=O)O)C(=O)N[C@@H](CCCCN)C(=O)N[C@H](C(=O)N[C@@H](CCCCN)C(=O)N[C@@H](CC(=O)O)C(=O)N[C@@H](CC(C)C)C(=O)N[C@H](C(N)=O)C(C)C)C(C)C)[C@@H](C)CC [IDWKKIFEKVKDLV]

- MIC (Candida albicans): 310 µM (≈ 501 µg/mL)
- MIC (Escherichia coli): > 400 µM
- MIC (Staphylococcus aureus): 19.3 µM (≈ 31.2 µg/mL)
SMILES: CC[C@H](C)[C@H](N)C(=O)N[C@@H](CC(C)C)C(=O)NCC(=O)N[C@@H](C)C(=O)N[C@H](C(=O)N[C@H](C(=O)N1CCC[C@H]1C(=O)N[C@@H](CC(C)C)C(=O)N[C@H](C(=O)N[C@@H](CO)C(=O)NCC(=O)N[C@@H](CC(C)C)C(=O)N[C@@H](CC(C)C)C(=O)N[C@@H](CO)C(=O)N[C@@H](Cc1cnc[nH]1)C(=O)N[C@@H](CC(C)C)C(N)=O)C(C)C)[C@@H](C)CC)[C@@H](C)CC [ILGAIIPLVSGLLSHL]

- MIC [1]: 10 µM (≈ 13.9 µg/mL)
- MIC [2]: 2.5 µM (≈ 3.49 µg/mL)
- MIC [5]: 2.5 µM (≈ 3.49 µg/mL)
- MIC [6]: 5 µM (≈ 6.97 µg/mL)
SMILES: CC[C@H](C)[C@H](NC(=O)[C@H](CCCN=C(N)N)NC(=O)[C@H](C)NC(=O)[C@@H](NC(=O)[C@@H](NC(=O)[C@H](CCCN=C(N)N)NC(=O)[C@@H](N)CCCCN)[C@@H](C)CC)C(C)C)C(=O)N[C@@H](CCCCN)C(=O)N[C@@H](C)C(=O)N[C@@H](C)C(=O)N[C@@H](CC(C)C)C(=O)N[C@@H](CCCN=C(N)N)C(=O)O [KRIVARIKAALR]

- MIC [1]: 1.25 µM (≈ 1.91 µg/mL)
- MIC [2]: 1.25 µM (≈ 1.91 µg/mL)
- MIC [5]: 1.25 µM (≈ 1.91 µg/mL)
- MIC [6]: 1.25 µM (≈ 1.91 µg/mL)
SMILES: CC[C@H](C)[C@H](NC(=O)[C@H](CCCN=C(N)N)NC(=O)[C@H](CCCCN)NC(=O)[C@@H](NC(=O)[C@@H](NC(=O)[C@H](CCCN=C(N)N)NC(=O)[C@@H](N)CCCCN)[C@@H](C)CC)C(C)C)C(=O)N[C@@H](CCCCN)C(=O)N[C@@H](C)C(=O)N[C@@H](Cc1ccccc1)C(=O)N[C@@H](CC(C)C)C(=O)N[C@@H](CCCN=C(N)N)C(=O)O [KRIVKRIKAFLR]

- MIC [1]: ≥ 40 µM
- MIC [2]: 40 µM (≈ 60.6 µg/mL)
- MIC [5]: 40 µM (≈ 60.6 µg/mL)
- MIC [6]: 40 µM (≈ 60.6 µg/mL)
SMILES: CC[C@H](C)[C@H](NC(=O)[C@H](CCCN=C(N)N)NC(=O)[C@H](CCC(N)=O)NC(=O)[C@@H](NC(=O)[C@@H](NC(=O)[C@H](CCCN=C(N)N)NC(=O)[C@@H](N)CCCCN)[C@@H](C)CC)C(C)C)C(=O)N[C@@H](C)C(=O)N[C@@H](CC(=O)O)C(=O)N[C@@H](Cc1ccccc1)C(=O)N[C@@H](CC(C)C)C(=O)N[C@@H](CCCN=C(N)N)C(=O)O [KRIVQRIADFLR]

- MIC (Bacillus subtilis): 1.19 µM (≈ 2.2 µg/mL)
- MIC (Escherichia coli): 38.3 µM (≈ 70.8 µg/mL)
- MIC (Staphylococcus aureus): 0.595 µM (≈ 1.1 µg/mL)
SMILES: CC[C@H](C)[C@H](NC(=O)[C@H](CC(C)C)NC(=O)[C@H](C)NC(=O)[C@@H]1CCCN1C(=O)[C@H](CC(C)C)NC(=O)[C@@H](N)CC(C)C)C(=O)N[C@@H](CO)C(=O)N[C@@H](Cc1c[nH]c2ccccc12)C(=O)N[C@H](C(=O)N[C@@H](CCCCN)C(=O)N[C@@H](CCCN=C(N)N)C(=O)N[C@@H](CCCCN)C(=O)N[C@@H](CCCN=C(N)N)C(=O)N[C@@H](CCC(N)=O)C(=O)N[C@@H](CCC(N)=O)C(N)=O)[C@@H](C)CC [LLPALISWIKRKRQQ]

- MIC (Bacillus subtilis): 10 µM (≈ 19.2 µg/mL)
- MIC (Escherichia coli): 6.25 µM (≈ 12 µg/mL)
SMILES: CC[C@H](C)[C@H](NC(=O)[C@H](CO)NC(=O)[C@H](C)NC(=O)[C@@H](NC(=O)[C@H](CCCCN)NC(=O)[C@H](CCCCN)NC(=O)[C@H](Cc1c[nH]c2ccccc12)NC(=O)[C@@H](NC(=O)[C@@H](N)CC(N)=O)[C@@H](C)CC)[C@@H](C)CC)C(=O)N[C@@H](C)C(=O)N[C@@H](CCCCN)C(=O)N[C@@H](CCC(=O)O)C(=O)N[C@H](C(=O)N[C@@H](CC(C)C)C(=O)N[C@@H](CCCCN)C(=O)N[C@@H](C)C(=O)N[C@@H](CC(C)C)C(N)=O)C(C)C [NIWKKIASIAKEVLKAL]

- MIC (Candida albicans): 20 µM (≈ 53.3 µg/mL)
- MIC (Escherichia coli): 10 µM (≈ 26.7 µg/mL)
- MIC (Staphylococcus aureus): 20 µM (≈ 53.3 µg/mL)
SMILES: CC[C@H](C)[C@H](NC(=O)[C@H](CCCCN)NC(=O)[C@H](CS)NC(=O)[C@H](C)NC(=O)[C@@H](NC(=O)[C@H](Cc1ccccc1)NC(=O)CNC(=O)[C@H](CC(C)C)NC(=O)CNC(=O)[C@@H](NC(=O)[C@H](CCCCN)NC(=O)CNC(=O)[C@H](CC(C)C)NC(=O)[C@H](CC(N)=O)NC(=O)[C@H](CCCCN)NC(=O)[C@H](CC(C)C)NC(=O)[C@@H](NC(=O)[C@H](CO)NC(=O)[C@H](CC(C)C)NC(=O)[C@H](CCSC)NC(=O)[C@@H](N)CO)C(C)C)C(C)C)C(C)C)C(=O)N[C@@H](CCCCN)C(=O)N[C@@H](CCCCN)C(=O)N[C@@H](CCC(N)=O)C(=O)N[C@@H](CS)C(=O)O [SMLSVLKNLGKVGLGFVACKIKKQC]

- MIC (Escherichia coli UB1005): 0.548 µM (≈ 1.3 µg/mL)
- MIC [7]: 27 µM (≈ 64 µg/mL)
- MIC [3]: > 54 µM
SMILES: CC[C@H](C)[C@H](NC(=O)[C@H](Cc1cnc[nH]1)NC(=O)[C@H](CCCN=C(N)N)NC(=O)[C@@H]1CCCN1C(=O)[C@@H]1CCCN1C(=O)[C@H](CCCN=C(N)N)NC(=O)[C@@H]1CCCN1C(=O)[C@H](CCCN=C(N)N)NC(=O)[C@@H]1CCCN1C(=O)[C@H](CC(C)C)NC(=O)[C@H](Cc1ccc(O)cc1)NC(=O)[C@@H]1CCCN1C(=O)[C@@H]1CCCN1C(=O)[C@H](CCCCN)NC(=O)[C@H](CC(=O)O)NC(=O)[C@@H](N)C(C)C)C(=O)N[C@@H](Cc1ccc(O)cc1)C(=O)N[C@@H](CC(N)=O)C(=O)N[C@@H](CCCN=C(N)N)C(N)=O [VDKPPYLPRPRPPRHIYNR]

Source: DBAASP
